The supplement of paper PMC4862054

test system: Hs578T; assay: normalised response (% of control), CellTiter-Glo; higher = more viable cells (100 = DMSO, 0 = benzethonium chloride kill control); conditions: incubation time: 72 h
Method in brief: (§1)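 After 72 h with compound in 384-well plates, breast cancer cell lines seeded as 20 µl suspension were read for CellTox Green fluorescence at 485/520 nm. CellTiter-Glo luminescence was then read after 10 min at room temperature. Compound was present at 5 concentrations in 10-fold steps over a 10,000-fold range set per compound, and plates were normalised to 0.1 % DMSO (100) and a positive kill control (0). Values are normalised signals, each at a single concentration.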

Point of comparison: `CCC1(c2ccc(N)cc2)CCC(=O)NC1=O` (stereo not given) [Aminoglutethimide] (10 nM), normalised response 97.3%. Against it:
- O=P1(NCCCl)OCCCN1CCCl (stereo not given) [Ifosfamide] (10 nM) — higher, 102%
- Oc1nc(-c2ccc(C(F)(F)F)cc2)nc2c1CSCC2 [XAV-939] (10 nM) — higher, 102%
- O=C1CCC(N2C(=O)c3ccccc3C2=O)C(=O)N1 (stereo not given) [Thalidomide] (10 nM) — higher, 100%
- Cn1c(CCCC(=O)O)nc2cc(N(CCCl)CCCl)ccc21 [Bendamustine] (10 nM) — higher, 103%
- Cc1ccc(C(=O)N(CCCN)[C@@H](c2oc3cc(Cl)ccc3c(=O)c2Cc2ccccc2)C(C)C)cc1 (0.01 nM) — higher, 97.8%
- O=C(CCCCCCC(=O)Nc1ccc([C@H]2O[C@@H](CSc3nc(-c4ccccc4)c(-c4ccccc4)o3)C[C@@H](c3ccc(CO)cc3)O2)cc1)NO [Tubacin] (10 nM) — higher, 104%
- NC(=O)Nc1cc(-c2cccc(F)c2)sc1C(=O)N[C@H]1CCCNC1 [AZD7762] (0.1 nM) — higher, 99.2%
- CC(=O)Nc1ccc(C(=O)Nc2ccccc2N)cc1 [Tacedinaline] (0.1 nM) — lower, 96.7%

test system: MDA-MB-453; assay: as above; conditions: incubation time: 72 h
Method in brief: as §1

Point of comparison: `C[C@]12CC[C@@H]3c4ccc(O)cc4C[C@@H](CCCCCCCCC[S+]([O-])CCCC(F)(F)C(F)(F)F)[C@H]3[C@@H]1CC[C@@H]2O` (stereo not given in full) [Fulvestrant] (100 nM), normalised response 109%. Against it:
- CS(=O)(=O)c1ccc(C2=C(c3ccccc3)C(=O)OC2)cc1 [Rofecoxib] (1 nM) — lower, 98.5%
- CCCCCCCCCCCCCCCCCCOP(=O)([O-])OC1CC[N+](C)(C)CC1 [Perifosine] (2.5 nM) — lower, 101%
- O=C(O)c1ccc(-c2c[nH]c3ncc(-c4ccccc4)cc23)cc1C1CCCC1 (1 nM) — lower, 99.3%
- N#CCNC(=O)c1ccc(-c2ccnc(Nc3ccc(N4CCOCC4)cc3)n2)cc1 [Momelotinib] (10 nM) — lower, 89.5%
- O=P1(NCCCl)OCCCN1CCCl (stereo not given) [Ifosfamide] (10 nM) — lower, 87.7%
- Oc1nc(-c2ccc(C(F)(F)F)cc2)nc2c1CSCC2 [XAV-939] (10 nM) — lower, 106%
- O=C1CCC(N2C(=O)c3ccccc3C2=O)C(=O)N1 (stereo not given) [Thalidomide] (10 nM) — lower, 96.3%
- Cn1c(CCCC(=O)O)nc2cc(N(CCCl)CCCl)ccc21 [Bendamustine] (10 nM) — lower, 107%
- Cc1ccc(C(=O)N(CCCN)[C@@H](c2oc3cc(Cl)ccc3c(=O)c2Cc2ccccc2)C(C)C)cc1 (0.01 nM) — lower, 101%
- CCC1(c2ccc(N)cc2)CCC(=O)NC1=O (stereo not given) [Aminoglutethimide] (10 nM) — lower, 90.2%
- O=C(CCCCCCC(=O)Nc1ccc([C@H]2O[C@@H](CSc3nc(-c4ccccc4)c(-c4ccccc4)o3)C[C@@H](c3ccc(CO)cc3)O2)cc1)NO [Tubacin] (10 nM) — lower, 97.2%
- NC(=O)Nc1cc(-c2cccc(F)c2)sc1C(=O)N[C@H]1CCCNC1 [AZD7762] (0.1 nM) — lower, 99.9%
- CC(=O)Nc1ccc(C(=O)Nc2ccccc2N)cc1 [Tacedinaline] (0.1 nM) — lower, 104%

test system: MCF-10A; assay: as above; conditions: incubation time: 72 h
Method in brief: as §1

Point of comparison: `C[C@]12CC[C@@H]3c4ccc(O)cc4C[C@@H](CCCCCCCCC[S+]([O-])CCCC(F)(F)C(F)(F)F)[C@H]3[C@@H]1CC[C@@H]2O` (stereo not given in full) [Fulvestrant] (100 nM), normalised response 109%. Against it:
- CS(=O)(=O)c1ccc(C2=C(c3ccccc3)C(=O)OC2)cc1 [Rofecoxib] (1 nM) — higher, 114%
- CCCCCCCCCCCCCCCCCCOP(=O)([O-])OC1CC[N+](C)(C)CC1 [Perifosine] (2.5 nM) — lower, 98.4%
- O=C(O)c1ccc(-c2c[nH]c3ncc(-c4ccccc4)cc23)cc1C1CCCC1 (1 nM) — lower, 89.7%
- N#CCNC(=O)c1ccc(-c2ccnc(Nc3ccc(N4CCOCC4)cc3)n2)cc1 [Momelotinib] (10 nM) — lower, 103%
- O=P1(NCCCl)OCCCN1CCCl (stereo not given) [Ifosfamide] (10 nM) — lower, 96.1%
- Oc1nc(-c2ccc(C(F)(F)F)cc2)nc2c1CSCC2 [XAV-939] (10 nM) — lower, 105%
- O=C1CCC(N2C(=O)c3ccccc3C2=O)C(=O)N1 (stereo not given) [Thalidomide] (10 nM) — lower, 100%
- Cn1c(CCCC(=O)O)nc2cc(N(CCCl)CCCl)ccc21 [Bendamustine] (10 nM) — higher, 110%
- Cc1ccc(C(=O)N(CCCN)[C@@H](c2oc3cc(Cl)ccc3c(=O)c2Cc2ccccc2)C(C)C)cc1 (0.01 nM) — lower, 97.8%
- CCC1(c2ccc(N)cc2)CCC(=O)NC1=O (stereo not given) [Aminoglutethimide] (10 nM) — lower, 103%
- O=C(CCCCCCC(=O)Nc1ccc([C@H]2O[C@@H](CSc3nc(-c4ccccc4)c(-c4ccccc4)o3)C[C@@H](c3ccc(CO)cc3)O2)cc1)NO [Tubacin] (10 nM) — lower, 99.1%
